Experimental data published in patent publication US5637309A, “Physiologically active substance-prolonged releasing-type pharmaceutical preparation” (Shiseido Company, Ltd., priority 1993, dated 1997).

Tests used:
[1] = tested on: basilar artery; assay: Cerebral vasospasm inhibition test on maxadilan (SEQ ID NO: 3) by cisterna puncture, angiography of the basilar artery; format: in vivo, Japanese white rabbit; settings: aqueous solution, 7 μg per kg
Excerpt: Cerebral vasospasm inhibition test on maxadilan (SEQ ID NO: 3)
A Japanese white rabbit (male, weighing 2-3 kg) was subjected to general anesthesia by injection of sodium pentobarbital through the auricular vein. After the rabbit was retained so as not to move, the surroundings of the punctured vein were disinfected with sterilized ethanol, a self-retaining needle was punctured into the vein, and immediately thereafter, a silicone-made extension tube equipped, at one end, with a three way cock connected at the two ways with 10-ml syringes each containing physiological saline and connected at the residual way with a 10-ml syringe containing sodium pentobarbital was connected to the self-retaining needle (when the blood vessel is thin, the blood vessel is stimulated by fingers to dilate it). […]
A spot for angiography was determined by transillumination, the head was fast fixed, back flow of the blood was confirmed, and 0.8 ml of a contrast medium was injected under a certain pressure (2.3 kg/cm^2). […]
Groups of rabbits, one group consisting of 5 animals, were treated as mentioned above, and among them, rabbits were selected wherein when the basilar artery was divided, starting from the junction from the vertebral artery, into three equal parts, and the diameter at the middle point was measured, spasm occurred at a level of 18% or more. […]

[2] = relative to SEQ ID NO: 2; cited from earlier work

## SEQ ID NO: 3: peptide wherein an amino acid sequence residue GSIL- is bonded to the N-terminus of SEQ ID NO: 1 maxadilan
[1]; 3 days after blood injection
  Inhibition of spasm compared to the sterile water administration group: spasm was significantly inhibited
[1]; vs sterile water group
  Duration of significant inhibition of spasm (from immediately after the administration): about 4 hours
[2]
  Vasodilative action (particularly, erythema activities), times higher than that of SEQ ID NO: 2: about 10 times
